From US8722582B2, “Thermodynamically stable crystal modification of 2-({2-chloro-4-(methylsulfonyl)-3-[(2,2,2-trifluoroethoxy)methyl]phenyl} carbonyl)cyclohexane-1,3-dione” (Bayer Cropscience AG, priority 2007, dated 2014)

Experiments:
[1] = Tests in practice of suspension formulations; type: physicochemical; conditions: tembotrione finely ground in solid form, spontaneously or over a relatively long period of time
Source text: Tembotrione, which is known, for example, from WO 00/21924 (example No. 3 in table 1), has herbicidal properties and is suitable for preparing crop protection compositions used for weed control. […] User-friendly presentation forms are, for example, suspension formulations in which tembotrione is present finely ground in solid form. […] The crystal growth may occur spontaneously or over a relatively long period of time and is unpredictable.

[2] = Stability test: storage of an oil dispersion; type: physicochemical; conditions: oil dispersion of tembotrione; after several weeks of storage; compared to oil dispersion of crystal modification II, III or a mixture thereof

| SMILES | crystal growth, agglomeration and precipitation in suspension formulation [1] | signs of agglomeration and precipitation on storage [2] |
| --- | --- | --- |
| CS(=O)(=O)c1ccc(C(=O)C2C(=O)CCCC2=O)c(Cl)c1COCC(F)(F)F [tembotrione, 2-({2-chloro-4-(methylsulfonyl)-3-[(2,2,2-trifluoroethoxy)methyl]phenyl}carbonyl)cyclohexan-1,3-dione] | leads to crystal growth and, as a consequence thereof, to agglomeration and precipitation | – |
| CS(=O)(=O)c1ccc(C(=O)C2C(=O)CCCC2=O)c(Cl)c1COCC(F)(F)F [crystal modification I, 2-({2-chloro-4-(methylsulfonyl)-3-[(2,2,2-trifluoroethoxy)methyl]phenyl}carbonyl)cyclohexan-1,3-dione] | – | no signs of agglomeration and precipitation |
